“And” between values parts separate entries of the source, which are not always exact repeats. Equal values may be shown once.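 All cell lines were grown in 96-well plates and treated with compound for 48 hours. Abbreviation: GI50, concentration required for 50% inhibition of growth. TGI denotes the concentration required for complete inhibition of growth.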
How the values were obtained:
Assay in all cases: NCI anticancer screen, dose series, 48 h
RXF 393 renal = test system: RXF 393 renal
T-47D breast = test system: T-47D breast
DU-145 prostate = test system: DU-145 prostate
MDA-MB-435 = test system: MDA-MB-435
PC-3 prostate = test system: PC-3 prostate
LOX IMVI melanoma = test system: LOX IMVI melanoma
SF-539 CNS = test system: SF-539 CNS
MDA-MB-231 breast = test system: MDA-MB-231 breast
SR leukemia = test system: SR leukemia
NCI-H522 lung = test system: NCI-H522 lung

In the case of `C/C(O)=C/c1nc2sc(C)c(C)c2c(=O)s1`, the TGI (RXF 393 renal) is reported as over 100 µM, the TGI (T-47D breast) is reported as over 100 µM and the TGI (DU-145 prostate) is reported as over 100 µM. For the same molecule, the TGI (MDA-MB-435) was over 100 µM, the TGI (PC-3 prostate) was 69.5 µM and the TGI (LOX IMVI melanoma) was over 100 µM. It also gave a TGI (SF-539 CNS) of over 100 µM and a TGI (MDA-MB-231 breast) of over 100 µM.

For `CN(Cc1cnc2nc(N)nc(N)c2n1)c1ccc(C(=O)NC2CCCCC2)cc1`, the TGI (RXF 393 renal) was over 100 µM, the TGI (T-47D breast) was over 100 µM and the TGI (DU-145 prostate) was over 100 µM. For the same molecule, the TGI (PC-3 prostate) was 46 µM, the TGI (LOX IMVI melanoma) was over 100 µM and the TGI (SF-539 CNS) was 29.7 µM. For the same molecule, the TGI (SR leukemia) was over 100 µM and the TGI (MDA-MB-231 breast) was over 100 µM.

For `CC(C)c1cccc(C(C)C)c1NC(=S)Nc1ccccc1`, the TGI (RXF 393 renal) was over 100 µM, the TGI (LOX IMVI melanoma) was over 100 µM and the TGI (SF-539 CNS) was over 100 µM. For the same molecule, the TGI (SR leukemia) was over 100 µM.

`CSc1ccc(C=C2N=C(c3ccccc3)N(c3cc(C(=O)c4ccccc4)ccc3N3C(=O)/C(=C/c4ccc(SC)cc4)N=C3c3ccccc3)C2=O)cc1` showed a TGI (T-47D breast) of over 100 µM, a TGI (DU-145 prostate) of over 100 µM and a TGI (MDA-MB-435) of over 100 µM. It also gave a TGI (PC-3 prostate) of over 100 µM, a TGI (LOX IMVI melanoma) of over 100 µM and a TGI (SF-539 CNS) of 79.5 µM. It also gave a TGI (MDA-MB-231 breast) of over 100 µM.

For `COc1ccc(C(c2ccccc2)N2C(=O)CCC2C(=O)O)cc1OC` (stereo not given), the TGI (T-47D breast) was over 100 µM, the TGI (NCI-H522 lung) was over 100 µM and the TGI (DU-145 prostate) was over 100 µM. The TGI (MDA-MB-435) was over 100 µM, the TGI (PC-3 prostate) was over 100 µM and the TGI (LOX IMVI melanoma) was over 100 µM. The TGI (SF-539 CNS) was over 100 µM, the TGI (SR leukemia) was over 100 µM and the TGI (MDA-MB-231 breast) was over 100 µM.

Molecule `CC1(C)O[C@@H]([C@@H](O)[C@H](O)C2SCCCS2)[C@@H](CO)O1` has a TGI (RXF 393 renal) of over 100 µM, a TGI (T-47D breast) of over 100 µM and a TGI (NCI-H522 lung) of over 100 µM. It also gave a TGI (DU-145 prostate) of over 100 µM, a TGI (MDA-MB-435) of over 100 µM and a TGI (PC-3 prostate) of over 100 µM. The TGI (LOX IMVI melanoma) was over 100 µM and the TGI (MDA-MB-231 breast) was over 100 µM.

In the case of `COc1ccc(-n2c(-c3ccccc3)cc(-c3cccs3)c2-c2cccs2)cc1`, the TGI (RXF 393 renal) is reported as over 100 µM, the TGI (T-47D breast) is reported as over 100 µM and the TGI (NCI-H522 lung) is reported as over 100 µM. It also gave a TGI (DU-145 prostate) of over 100 µM, a TGI (MDA-MB-435) of over 100 µM and a TGI (LOX IMVI melanoma) of over 100 µM. For the same molecule, the TGI (SF-539 CNS) was over 100 µM, the TGI (SR leukemia) was over 100 µM and the TGI (MDA-MB-231 breast) was over 100 µM.

Molecule `N=C(N)c1ccc(-c2ccc(-c3ccccc3)o2)cc1` has a GI50 (DU-145 prostate) of 2.72 µM, a TGI (DU-145 prostate) of 7.93 µM and a GI50 (MDA-MB-435) of 1.66 µM. The TGI (MDA-MB-435) was 3.03 µM, the GI50 (PC-3 prostate) was 2.28 µM and the TGI (PC-3 prostate) was 5.97 µM. For the same molecule, the GI50 (SF-539 CNS) was 1.65 µM, the TGI (SF-539 CNS) was 3.38 µM and the GI50 (SR leukemia) was 1.67 µM. It also gave a TGI (SR leukemia) of 5.29 µM, a GI50 (MDA-MB-231 breast) of 1.93 µM and a TGI (MDA-MB-231 breast) of 4.08 µM.

`COc1cc(-c2c(C(C)=O)c(-c3ccccc3)n(C3OC(COC(C)=O)C(OC(C)=O)C(OC(C)=O)C3OC(C)=O)c(=S)c2C#N)ccc1O` (stereo not given) was tested, and the TGI (RXF 393 renal) was over 100 µM, the GI50 (NCI-H522 lung) was 18.6 µM and 40.2 µM and the TGI (NCI-H522 lung) was 90.4 µM and > 100 µM. It also gave a TGI (DU-145 prostate) of over 100 µM, a TGI (MDA-MB-435) of over 100 µM and a TGI (PC-3 prostate) of over 100 µM. For the same molecule, the TGI (LOX IMVI melanoma) was over 100 µM and the TGI (SR leukemia) was over 100 µM.

`COC1(CCO)CC=CCC1(CCO)OC` (stereo not given) gave a TGI (T-47D breast) of over 100 µM, a TGI (NCI-H522 lung) of over 100 µM and a TGI (DU-145 prostate) of over 100 µM. For the same molecule, the TGI (PC-3 prostate) was over 100 µM and the TGI (LOX IMVI melanoma) was over 100 µM.

With `CCOC(=O)CC(=O)Nc1c(C(=O)OCC)sc2nc(SC)nc(Nc3ccc(OC)c(OC)c3)c12` the TGI (RXF 393 renal) was 25.1 µM, the TGI (NCI-H522 lung) was 34.1 µM and the TGI (DU-145 prostate) was over 100 µM. The TGI (MDA-MB-435) was over 100 µM, the TGI (PC-3 prostate) was over 100 µM and the TGI (LOX IMVI melanoma) was over 100 µM. It also gave a TGI (SF-539 CNS) of 69.2 µM and a TGI (MDA-MB-231 breast) of over 100 µM.

For `CCCN=C1S/C(=C/c2ccc(OC)c(OC)c2)C(=O)N1c1ccccc1`, the TGI (T-47D breast) was over 100 µM, the TGI (NCI-H522 lung) was over 100 µM and the TGI (MDA-MB-435) was over 100 µM. It also gave a TGI (PC-3 prostate) of over 100 µM, a TGI (LOX IMVI melanoma) of over 100 µM and a TGI (SF-539 CNS) of 30.2 µM. It also gave a TGI (SR leukemia) of over 100 µM and a TGI (MDA-MB-231 breast) of 92.6 µM.

`CC(C)=CCc1c(O)c(CC=C(C)C)c2oc3c(c(=O)c2c1O)C(C=C(C)C)Oc1cc(O)ccc1-3` (stereo not given) showed a TGI (T-47D breast) of 15.4 µM, a TGI (NCI-H522 lung) of 15.2 µM and a TGI (DU-145 prostate) of 24.3 µM. For the same molecule, the TGI (MDA-MB-435) was 13.7 µM, the TGI (PC-3 prostate) was 14.4 µM and the TGI (LOX IMVI melanoma) was 16 µM. For the same molecule, the TGI (SF-539 CNS) was 25.5 µM, the TGI (SR leukemia) was 8.29 µM and the TGI (MDA-MB-231 breast) was 25.6 µM.

`[N-]=[N+]=NC1=C(N=[N+]=[N-])c2cccc3cccc(c23)C1=O` showed a TGI (RXF 393 renal) of over 100 µM, a TGI (T-47D breast) of over 100 µM and a TGI (NCI-H522 lung) of over 100 µM. For the same molecule, the TGI (MDA-MB-435) was over 100 µM, the TGI (PC-3 prostate) was over 100 µM and the TGI (LOX IMVI melanoma) was over 100 µM. For the same molecule, the TGI (SF-539 CNS) was over 100 µM, the TGI (SR leukemia) was over 100 µM and the TGI (MDA-MB-231 breast) was over 100 µM.

In the case of `c1cc(-c2ccc(Oc3ccc(-c4ccncc4)cc3)cc2)ccn1`, the TGI (RXF 393 renal) is reported as over 86 µM, the TGI (T-47D breast) is reported as over 100 µM and the TGI (NCI-H522 lung) is reported as over 79.4 µM. For the same molecule, the TGI (DU-145 prostate) was over 100 µM, the TGI (PC-3 prostate) was over 100 µM and the TGI (LOX IMVI melanoma) was over 100 µM. For the same molecule, the TGI (SF-539 CNS) was over 100 µM, the TGI (SR leukemia) was 9.97 µM and the TGI (MDA-MB-231 breast) was over 100 µM.

Work on `NC(=S)NS(=O)(=O)c1ccc(F)cc1` yielded a TGI (RXF 393 renal) of over 100 µM, a TGI (T-47D breast) of over 100 µM and a TGI (NCI-H522 lung) of over 100 µM. It also gave a TGI (DU-145 prostate) of over 100 µM, a TGI (MDA-MB-435) of over 100 µM and a TGI (PC-3 prostate) of over 100 µM. It also gave a TGI (LOX IMVI melanoma) of over 100 µM, a TGI (SF-539 CNS) of over 100 µM and a TGI (MDA-MB-231 breast) of over 100 µM.

`CSc1nc(NC2OC(CO)C(O)C(O)C2O)c(N)c(=O)n1C` (stereo not given) showed a TGI (RXF 393 renal) of over 100 µM, a TGI (NCI-H522 lung) of over 100 µM and a TGI (LOX IMVI melanoma) of over 100 µM. For the same molecule, the TGI (SF-539 CNS) was over 100 µM.

With `COc1ccc(OC)c(CC(=O)c2ccc(O)c(C(=O)NCCc3ccc(F)cc3)c2)c1` the TGI (RXF 393 renal) was 2.9 µM, the TGI (T-47D breast) was 8.44 µM and the TGI (NCI-H522 lung) was 11.2 µM. The TGI (LOX IMVI melanoma) was 27 µM, the TGI (SR leukemia) was 10 µM and the TGI (MDA-MB-231 breast) was 20.4 µM.

With `CCCCCCCCCCCCCCCc1ccc(C(=O)C[n+]2ccccc2)cc1` the GI50 (T-47D breast) was 1.38 µM, the TGI (T-47D breast) was 3.77 µM and the GI50 (DU-145 prostate) was 1.2 µM. It also gave a TGI (DU-145 prostate) of 2.44 µM, a GI50 (PC-3 prostate) of 1.23 µM and a TGI (PC-3 prostate) of 3.77 µM. The GI50 (LOX IMVI melanoma) was 0.348 µM, the TGI (LOX IMVI melanoma) was 1.19 µM and the GI50 (MDA-MB-231 breast) was 0.886 µM. The TGI (MDA-MB-231 breast) was 2.23 µM.

From PubChem BioAssay (NCI)
